Experimental data reported in patent publication US20130324413A1, “METHOD FOR PROMOTING PLANT GROWTH” (SUMITOMO CHEMICAL COMPANY, LIMITED, priority 2011, published 2013).

Experiments:
Assay type in all cases: in vivo
[1] = system: corn seeds (cultivar: Kuromochi); assay: Test Example 1: corn seed coating, fresh weight of above-ground part after 18 days; conditions: for Average fresh weight of above-ground part: seed coating, grown 18 days at 27° C., non-treated 4.2 g
Procedure: A blank slurry solution containing 5% (V/V) color coat red (Becker Underwood, Inc.), 5% (V/V) CF-Clear (Becker Underwood, Inc.) and 0.4% Maxim XL (Syngenta) was prepared. […] In a 50-ml centrifuge tube (manufactured by BD Japan), 0.48 ml of the slurry solution was placed for each 20 g of corn seeds (cultivar: Kuromochi) and stirred until the solution was dried, thereby coating the seeds. As a control, seeds were coated with the blank slurry solution and used as seeds for a non-treated group. Two treated corn seeds were sown in the culture soil (AISAI) in each plastic pot (55 mm in diameter×58 mm in height) and grown for 18 days under the following conditions: temperature, 27° C.; illuminance, about 5,000 lux; day length, 16 hours. The fresh weight of the above-ground part of the plants was measured. The experiment was performed in four replications for each treatment condition and the average weight per individual was calculated.

[2] = system: Corn (cultivar: DeKalb 61-69); assay: Test Example 4: field corn foliage spraying, percentage of green leaves; conditions: assessed 143 days after sowing (R6), non-treated 23.8%
From the text: Corn seeds (cultivar: DeKalb 61-69) were sown at 33,684 seeds per acre and grown. Each plot in the field for treatment measured 10 feet in width and 15.5 feet in length. The treatments were arranged using the Randomized Complete Block Design method with eight replications for each treatment. Groups treated with the formulation without compound (1b) were used as the non-treated groups, in which corn was cultivated in the same manner as in the present compound-treated groups. The flowable formulation prepared as described in Formulation Example 2 was applied by foliage spraying 111 days after the sowing, at developmental stage R3 of maize. The percentage of green leaves among the leaves upper to the lowest ear of corn was determined for each formulation-treated group 143 days after the sowing, at developmental stage R6 of maize. As a result, the percentages were 41.3% and 45.6% on average, respectively, in the groups treated with 100 g and 300 g per hectare of compound (1b), while the percentage was 23.8% on average in the non-treated groups.

[3] = system: corn seeds (cultivar: Kuromochi); assay: Test Example 6: corn seed coating, low-temperature stress, fresh weight of above-ground part; conditions: for Average fresh weight of above-ground part: low-temperature stress 3±2° C. 7 days, non-treated 1.18 g
Procedure: A blank slurry solution containing 5% (V/V) color coat red (Becker Underwood, Inc.), 5% (V/V) CF-Clear (Becker Underwood, Inc.) and 0.4% Maxim XL (Syngenta) was prepared. […] In a 50-ml centrifuge tube (manufactured by BD Japan), 0.48 ml of the slurry solution was placed for each 20 g of corn seeds (cultivar: Kuromochi) and stirred until the solution was dried, thereby coating the seeds. As a control, seeds were coated with the blank slurry solution and used for a non-treated group. Two treated corn seeds were sown in the culture soil (AISAI) in each plastic pot (55 mm in diameter×58 mm in height) and grown for 4 days under the following conditions: temperature, 27° C.; illuminance, 5,000 lux; day length, 16 hours. These were subjected to the test. The pots at day 4 after the sowing were placed in a phytotron under the following conditions in order to expose the plants to low-temperature stress for 7 days. Conditions: “temperature, 3±2° C.; day length, 16 hours; illuminance, about 5,000 lux; humidity, 35 to 80%” The plants were grown for another 7 days under the following conditions: temperature, 27° C.; humidity, 50 to 75%, illuminance, about 5,000 lux; day length, 16 hours. Then the fresh weight of the above-ground part of the plants was measured. The experiment was performed in four replications for each treatment condition and the average weight per individual was calculated.

[4] = system: Corn (cultivar: PIONEER 120 31P41); assay: Test Example 13: corn soil irrigation, low-temperature stress, growth and chlorophyll; conditions: soil irrigation 20 ml, low-temperature stress 2 to 4° C. 5 days
Procedure: Corn seeds (cultivar: PIONEER 120 31P41) are sown in the culture soil (AISAI) in plastic pots (55 mm in diameter×58 mm in height) and grown for 7 days under the following conditions: temperature, 20 to 25° C.; humidity, 50 to 75%; illuminance, about 5,000 lux; day length, 16 hours. A DMSO solution of compound (1b) at a 1,000-fold concentration relative to each test concentration is diluted with distilled water to prepare a test soultion. Twenty (20) ml of the test solution obtained is applied around the base of each plant by soil irrigation, and then the plants are grown for two days under the following conditions: temperature, 27° C., humidity, 50 to 75%; illuminance, about 5,000 lux; day length 16 hours. This group is the present compound-treated group. The group to which 20 ml of a 0.1% aqueous DMSO solution is applied by soil irrigation in place of the DMSO solution of compound (1b) is used as the non-treated group. The plants subjected to the soil irrigation are grown for 5 days under the following conditions, to expose the plants to low-temperature stress: temperature, 2 to 4° C.; humidity, 40 to 70%, illuminance, about 5,000 lux; day length, 16 hours in a phytotron. After the exposure to low-temperature stress, the plants are grown for 4 days under the conditions of a temperature off20 to 25° C., a humidity of 50 to 75%, an illuminance of about 5,000 lux, and a day length of 16 hours. Then the plant weight and the length of true leaves are measured. Also, after the exposure to low-temperature stress, the plants are grown for 1 day under the conditions of a temperature of 20 to 25° C., a humidity of 50 to 75%, an illuminance of about 5,000 lux, and a day length of 16 hours. Then the chlorophyll fluorescence (Fv/Fm) is measured using a pulse modulation chlorophyll fluorometer (MAXI-IMAGING-PAM, WALZ). The chlorophyll content is measured using a chlorophyll gauge (SPAD-502; manufactured by KONICA MINOLTA).

Structure (SMILES): CNC(=O)C(OC)c1ccccc1COc1cc(C)ccc1C (racemic) [Compound (1b), N-methyl-2-[2-(2,5-dimethylphenoxy)methyl]phenyl-2-methoxyacetamide]
- Relative value (fresh weight of above-ground part) ([1]; 12.5 g/ of seeds, non-treated = 100): 105%
- fresh weight of the above-ground part as compared with the control group ([1]; amount ranging from 10 g to 50 g per 100 kg of seeds): increased
- Average fresh weight of above-ground part ([1]; amount of compound 10 g/ of seeds): 4.4 g
- Average fresh weight of above-ground part ([1]; amount of compound 12.5 g/ of seeds): 4.4 g
- Average fresh weight of above-ground part ([1]; amount of compound 25 g/ of seeds): 5.0 g
- Average fresh weight of above-ground part ([1]; amount of compound 50 g/ of seeds): 4.5 g
- percentage of green leaves among the leaves upper to the lowest ear (average) ([2]; foliage spraying 100 g per hectare at 111 days (R3)): 41.3%
- percentage of green leaves among the leaves upper to the lowest ear (average) ([2]; foliage spraying 300 g per hectare at 111 days (R3)): 45.6%
- Average fresh weight of above-ground part ([3]; seed coating 10 g): 1.33 g
- Average fresh weight of above-ground part ([3]; seed coating 25 g): 1.30 g
- Average fresh weight of above-ground part ([3]; seed coating 50 g): 1.29 g
- Average fresh weight of above-ground part ([3]; seed coating): 1.34 g
- fresh weight of the above-ground part as compared with the control group ([3]; plants exposed to low-temperature stress, 10 g to 50 g per 100 kg of seeds): an increase
- chlorophyll fluorescence (Fv/Fm) as compared with the non-treated group ([4]; then 1 day growth): increases
- length of true leaves as compared with the non-treated group ([4]; then 4 days growth): increased
- plant weight as compared with the non-treated group ([4]; then 4 days growth): increased
- chlorophyll content as compared with the non-treated group ([4]; chlorophyll gauge SPAD-502): increases
